Measurements from patent US9217012B2, “Inhibitors of protein tyrosine phosphatases” (Indiana University Research and Technology Corporation, priority 2009, dated 2015).
“And” between values parts separate entries of the source, which are not always exact repeats. Equal entries are not always repeated. “Also recorded” adds a separate entry of the source. Where two headings read alike, the source gives them in different places.

Legend:
[1] = system: EGFR phosphorylation in PTP1B−/− mouse embryo fibroblast cells; experiment: Effect of TC-PTP inhibitor on EGFR phosphorylation (anti-pTyr immunoblot); type: cell-based; conditions: 2 h; for increase in EGFR phosphorylation compared to DMSO: EGF 2 ng/ml 10 min
Protocol: To determine the cellular efficacy of 10, its effect on tyrosine phosphorylation of EGFR, a known substrate of TC-PTP (Tiganis et al., 1998; Klingler-Hoffmann et al., 2001; Mattila et al., 2005) was assessed using an antibody against pTyr. The cells were incubated with 10 for 2 hr and subsequently treated either with or without EGF (2 ng/ml) for 10 min.
PTP1B^−/− cells were treated with TC-PTP inhibitor at indicated concentration for 2 h before EGF treatment. After EGF treatment (2 ng/ml) for 10 min, cells were lysed in 10 mM HEPES, pH 7.4, 150 mM NaCl, 10% Glycerol, 10 mM sodium phosphate, 10 mM sodium fluoride, 1 mM sodium pervanadate, 1 mM benzamidine, 1% Triton X-100, 10 μg/ml leupeptin, and 5 μg/ml aprotinin. Cell lysates were cleared by centrifugation at 15,000 rpm for 10 min. The lysate protein concentration was estimated using the BCA protein assay kit (PIERCE). To detect EGFR phosphorylation levels, 10 μg of anti-EGFR antibody (CELL SIGNALING, #2232) was added to 1 mg of cell lysate and incubated at 4° C. for 2 h. […] of protein A/G-agarose beads were then added and incubated for another 2 h. After extensive washing, the protein complex was boiled with sample buffer, separated by SDS-PAGE, transferred electrophoretically to PVDF membrane, and immunoblotted with anti-pTyr antibodies (MILLIPORE, #05-1050) followed by incubation with horseradish peroxidase-conjugated secondary antibodies. The blots were developed by the enhanced chemiluminescence technique (ECL kit, AMERSHAM BIOSCIENCES).
PTP1B^−/− mouse embryo fibroblast cells were treated with TC-PTP inhibitor at the indicated concentration for 2 h prior to EGF treatment. After EGF treatment (2 ng/mL) for 10 min, cells were lysed in 10 mM HNEPES, pH 7.4, […], 10% Glycerol, 10 mM sodium phosphate, 10 mM sodium fluoride, 1 mM sodium pervanadate, 1 mM benzamidine, 1% Triton X-100, 10 μg/mL leupeptin, and 5 μg/mL aprotinin. Cell lysates were cleared by centrifugation at 15 000 rpm for 10 min. The lysate protein concentration was estimated using the BAC protein assay kit (Pierce). To detect EGFR phosphorylation levels, 10 μg of anti-EGFR antibody (Cell Signaling, #2232) were added to 1 mg of cell lysate and incubated at 4° C. for 2 h. 20 μL of protein A/G-agarose beads were then added and incubated for another 2 hr. After extensive washing, the protein complex was boiled with sample buffer, separated by SDS-PAGE, transferred electrophoretically to a PVDF membrane, and immunoblotted with anti-pTyr antibodies (Millipore, #5-1050) followed by incubation with horseradish peroxidase conjugalated secondary antibodies. The blots were developed by enhanced chemiluminescence technique (ECL kit, Amersham Biosciences).
The cellular efficacy of compound 10 was assessed by examining its effect on tyrosine phosphorylation of EGFR, a known substrate of TC-PTP. Referring now to FIG. 2 B. PTP1B^−/− mouse embryo filbroblast cells were incubated with compound 10 at various concentrations for 2 h and subsequently treated either with or without EGF (2 ng/mL) for 10 min Inhibition of TC-PTP is expected to enhance endrogenous levels of phosphorylated EGFR. […] Remarkably, the phosphorylated form of EGFR is increased nearly 2-fold even at an inhibitor concentration of 5 nM (1.2×Ki).

CD45 = CD45 (Homo sapiens (Human), UniProt P08575); experiment: PTP selectivity panel (pNPP), CD45; type: biochemical; conditions: Table 3
Protocol: PTP activity was assayed using p-nitrophenyl phosphate (pNPP) as a substrate in DMG buffer (50 mM DMG, pH 7.0, 1 mM EDTA, 150 mM NaCl, 2 mM DTT, 0.1 mg/mL BSA) at 25° C. The assays were performed in 96-well plates. Normally, to determine the IC50 values, the reaction was initiated by the addition of enzyme (final concentration of 10 nM) to a reaction mixture (0.2 mL) containing 2 mM (Km for the substrate) pNPP with various concentrations of inhibitors. The reaction rate was measured using a Spectra Max Plus 384 Microplate Spectrophotometer (Molecular Devices). For compound 10, the final TC-PTP concentration was 0.04 nM. The reactions were incubated at room temperature for 30 min and quenched with 5N NaOH. The absorbance at 405 nm was read on the SpectraMax Plus 384 Microplate Spectrophotometer. For the reversibility test, the enzyme was incubated with the inhibitor at room temperature for 30 min before pNPP was added to initiate the reaction. The reaction was then incubated at room temperature for 30 min and quenched and read. […] To determine the mode of inhibition, the reactions were initiated by the additional enzyme (final concentration for TC-PTP was 0.4 nM and for PTP was 2 nM) to the reaction mixtures (0.2 mL) containing various concentrations of pNPP with different concentrations of the inhibitor. Data were fitted using SigmaPlot Enzyme Kinetics Module (Systat Software, Inc.)

TC-PTP = TC-PTP (Homo sapiens (Human), UniProt P17706); experiment: PTP activity assay with pNPP substrate, TC-PTP; type: biochemical; conditions: for IC50: 0.04 nM TC-PTP
Protocol: The PTP activity was assayed using p-nitrophenyl phosphate (pNPP) as a substrate in DMG buffer at 25° C. […] The reaction rate was measure using a SPECTRAMAX microplate spectrophotometer (Molecular Devices). For the determination of Km, the initial velocity and substrate concentration data were fitted to Michaelis-Menten equation using SIGMAPLOT. […] The assays were performed in 96-well plates. […] The reaction rate was measured using a Spectra Max Plus 384 Microplate Spectrophotometer (Molecular Devices). […] The reactions were incubated at room temperature for 30 min and quenched with 5N NaOH. The absorbance at 405 nm was read on the SpectraMax Plus 384 Microplate Spectrophotometer. For the reversibility test, the enzyme was incubated with the inhibitor at room temperature for 30 min before pNPP was added to initiate the reaction. The reaction was then incubated at room temperature for 30 min and quenched and read. […] Data were fitted using SigmaPlot Enzyme Kinetics Module (Systat Software, Inc.)

Sequence of TC-PTP (P17706 whole entry): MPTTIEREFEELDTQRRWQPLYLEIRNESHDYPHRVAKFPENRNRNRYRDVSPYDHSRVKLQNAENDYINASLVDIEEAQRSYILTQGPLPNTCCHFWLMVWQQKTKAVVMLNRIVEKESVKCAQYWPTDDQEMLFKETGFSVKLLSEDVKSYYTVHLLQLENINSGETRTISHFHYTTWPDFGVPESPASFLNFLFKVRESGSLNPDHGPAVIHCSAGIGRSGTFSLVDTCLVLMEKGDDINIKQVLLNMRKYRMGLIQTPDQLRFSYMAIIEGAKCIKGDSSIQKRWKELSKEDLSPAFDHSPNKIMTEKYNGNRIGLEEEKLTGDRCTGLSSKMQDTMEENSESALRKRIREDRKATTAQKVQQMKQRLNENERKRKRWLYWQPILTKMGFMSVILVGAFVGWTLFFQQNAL
Sequence of CD45 (P08575 26-1306, species assumed): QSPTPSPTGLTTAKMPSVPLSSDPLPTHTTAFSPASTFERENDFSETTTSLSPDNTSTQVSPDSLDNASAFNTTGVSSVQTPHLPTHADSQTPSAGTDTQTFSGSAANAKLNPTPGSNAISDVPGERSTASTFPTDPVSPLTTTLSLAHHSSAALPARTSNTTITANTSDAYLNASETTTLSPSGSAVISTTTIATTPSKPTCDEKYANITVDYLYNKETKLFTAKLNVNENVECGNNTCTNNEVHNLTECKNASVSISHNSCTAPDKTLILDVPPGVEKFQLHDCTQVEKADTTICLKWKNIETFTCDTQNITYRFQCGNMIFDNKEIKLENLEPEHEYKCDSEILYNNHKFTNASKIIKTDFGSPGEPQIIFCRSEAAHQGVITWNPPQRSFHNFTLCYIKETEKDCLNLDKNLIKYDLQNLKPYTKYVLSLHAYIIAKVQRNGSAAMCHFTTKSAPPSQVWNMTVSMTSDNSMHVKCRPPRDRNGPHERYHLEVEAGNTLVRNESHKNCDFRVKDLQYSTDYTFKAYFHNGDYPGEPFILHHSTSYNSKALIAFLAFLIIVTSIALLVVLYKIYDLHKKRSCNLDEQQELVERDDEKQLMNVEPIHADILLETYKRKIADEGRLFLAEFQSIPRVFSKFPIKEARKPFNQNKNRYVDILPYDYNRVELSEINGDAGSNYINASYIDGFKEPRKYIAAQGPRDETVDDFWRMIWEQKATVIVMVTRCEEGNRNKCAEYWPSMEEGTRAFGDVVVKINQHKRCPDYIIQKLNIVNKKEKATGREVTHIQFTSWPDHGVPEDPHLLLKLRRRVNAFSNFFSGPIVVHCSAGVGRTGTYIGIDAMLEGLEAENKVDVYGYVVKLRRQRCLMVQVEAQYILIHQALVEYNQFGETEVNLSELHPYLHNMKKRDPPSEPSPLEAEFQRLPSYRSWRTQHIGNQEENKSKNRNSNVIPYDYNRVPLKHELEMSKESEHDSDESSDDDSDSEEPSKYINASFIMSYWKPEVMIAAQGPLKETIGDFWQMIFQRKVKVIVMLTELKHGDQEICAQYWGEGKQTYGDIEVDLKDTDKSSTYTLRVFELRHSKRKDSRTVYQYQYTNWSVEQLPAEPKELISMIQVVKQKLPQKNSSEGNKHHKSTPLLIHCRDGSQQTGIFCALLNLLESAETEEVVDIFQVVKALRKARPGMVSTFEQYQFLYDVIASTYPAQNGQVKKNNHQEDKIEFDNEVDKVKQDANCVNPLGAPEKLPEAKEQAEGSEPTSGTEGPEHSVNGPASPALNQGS

In the case of `CCc1ccc(C(=O)NCCCCC(NC(=O)C(Cc2ccc(C(F)(F)P(=O)(O)O)cc2)NC(=O)C(Cc2ccccc2)NC(=O)COC2CC(C)CCC2C(C)C)C(N)=O)cc1` (stereo not shown) [Compound 10], the “effect on EGFR phosphorylation, dose dependence” value ([1]; 0-50 nM) is reported as “enhanced EGFR phosphorylaltion in a dose-dependent fashion; also recorded: augmented EGFR phosphorylation in a dose dependent manner”, the “increase in EGFR phosphorylation compared to DMSO” value (“increase in EGFR phosphorylation” below) ([1]; 5 nM) is reported as ~2 fold and 1.9 fold and the “increase in EGFR phosphorylation” value ([1]; 10 nM) is reported as 3.4 fold. For the same compound, the “increase in EGFR phosphorylation” value ([1]; 20 nM) was 3.9 fold, the “increase in EGFR phosphorylation” value ([1]; 50 nM) was 5.0 fold and the Ki (CD45) was greater than 1000 nM. For the same compound, the IC50 (TC-PTP; IC50 with TC-PTP preincubation, enzyme preincubated with inhibitor 30 min) was 8.7 ± 1.4 nM, the IC50 (TC-PTP; IC50 without TC-PTP preincubation, no preincubation) was 9.2 ± 1.4 nM and the “selectivity for TC-PTP over PTP1B” value (TC-PTP; TC-PTP versus PTP1B) was 8 fold and 5.6 fold. For the same compound, the Ki (TC-PTP; Table 3, Example 13, read-out: Ki (TC-PTP)) was 4.3 ± 0.2 nM, the “mode of inhibition of TC-PTP” value (TC-PTP; kinetic analysis) was “reversible TC-PTP inhibitor; also recorded: reversible and competitive inhibitor” and the Ki (TC-PTP; tight binding inhibition equation, Table 1, read-out: Ki for TC-PTP) was 4.1 ± 0.2 nM. For the same compound, the “selectivity versus a panel of PTPs” value (TC-PTP; versus SHP2, Lyp, HePTP, PTP-Meg2, FAP1, CD45, LAR, PTPa, VHR, VHX, CDC14A, low molecular weight PTP) was “more than 200 fold”.
